# Measured values taken from article PMC8422859, “A Novel Oral Arginase 1/2 Inhibitor Enhances the Antitumor Effect of PD-1 Inhibition in Murine Experimental Gliomas by Altering the Immunosuppressive Environment” (Frontiers in Oncology, 2021).
# Entries after “also recorded” stand apart in the source; their conditions may differ.
# Experiments:
# [1] = system: GL261 tdTomato+luc+ glioma; test: GL261 intracranial glioma growth (tumor volume, bioluminescence); format: in vivo, mouse
# Description: Mice were deeply anesthetized with isoflurane. After identifying the sagittal and coronal sutures on the right side, a hole was drilled at the following coordinates: 1 mm anterior and 1,5 mm lateral from bregma. GL261 tdTomato^+luc^+ glioma cells (80,000 in 1 μL of DMEM) were stereotactically injected with a Hamilton syringe to the right striatum of the mouse 3 mm deep from the surface of the brain. The skin incision was closed and mice were monitored until they completely recovered from anesthesia. Mice were randomly allocated to the study groups. The animals were weighed weekly and observed daily for clinical symptoms and evidence of toxicity by evaluating their eating, mobility, weight loss, hair loss, and hunched posture. OAT-1746 was administered by oral gavage at 50 mg/kg twice a day from day 1 after implantation. Anti-PD-1 antibody (Biolegend, GoInVivo™ Purified anti-mouse CD279) was injected intraperitoneally (i.p.) at a dose of 2.5 mg/kg on days 8, 10, 12, 14 post-implantation. Control groups received vehicle (saline) twice a day by gavage. Animals were euthanized when they lost more than 20% of body weight compared to day 0.
# To monitor tumor growth, mice were injected i.p. with 150 mg/kg body weight luciferin (D-luciferin sodium salt BC218 Synchem) and left for 8 min. Then, the animals were anesthetized with 3% isoflurane and transferred to the X-treme Imaging System (Bruker, Germany). At 10 min after the D-luciferin injection, a photonic emission was imaged. Tumors were visualized at days 14, 21 and 28 after implantation and bioluminescent images were quantified as photon/sec/mm^2. […]
# The animals were sacrificed on the day 21 after GL261 tdTomato^+luc^+ cell implantation and perfused with 4% paraformaldehyde in PBS. […] To quantify the tumor size, sections were stained with toluidine blue, and images were acquired using a Leica DM4000B microscope (Leica Microsystems, Wetzlar, Germany). Tumor areas were measured using ImageJ software (NIH, Bethesda, MD, USA) on every sixth brain slice, and tumor volumes were calculated as previously described ([26]).
# [2] = system: U87-MG glioma cells; test: Matrigel invasion assay, U87-MG co-cultured with BV2 microglia; format: cell-based, human
# Description: BV2 cells were plated onto a 24-well plate at the density of 4×10^4. After 24 h, the invasion assay was performed with tissue culture inserts (6.5 mm Transwell® with 8.0 µm Pore Polycarbonate Membrane Insert, Corning, NY, USA) coated with the Growth Factor Reduced Matrigel™ Matrix (BD Biosciences, San Diego. CA, USA). The Matrigel™ Matrix (50 µL of 1 mg/mL stock solution diluted in fresh DMEM) was dried under sterile conditions (37°C) for 5–6 h. The medium in BV2 cultures was replaced with fresh one 1 h before seeding glioblastoma cells onto the inserts, then LN18 and U87 glioblastoma cells were seeded at 2×10^4/insert on Matrigel-covered membranes in a serum-reduced medium (2% FBS). Untreated glioblastoma cells co-cultured with or without BV2 cells served as positive and negative controls, respectively. Cells were treated with the arginase-1 inhibitors OAT-90, OAT-1617 and OAT-1746 solved in PBS. The cultures were kept in incubator at 37°C with humidified air containing 5% CO2. After 18 h cells were fixed in ice-cold methanol and cell nuclei stained with DAPI (4′,6-Diamidino-2-Phenylindole; 1 µg/mL, Sigma). The membranes from Transwell® inserts were cut out and images were acquired using a fluorescence microscope (Leica DM4000B, 10x lens) from the 5 independent fields (bottom; top; left; right side and the middle). Numbers of invading cells were counted using the ImageJ software (NIH, Bethesda, MD, USA). All experiments were performed three times, in duplicates.
# [3] = system: primary murine microglia; test: Viability assay, primary microglia; format: cell-based, mouse; details: 24 h, concentrations up to 1000 µM
# Description: Cell viability was assessed using MTT metabolism assay (U87 and BV2 cells) or MTS CellTiter 96® AQueous One Solution Cell Proliferation Assay (Promega) for the primary murine microglia cultures. Cells were cultured either in 96-well plates (U87 at density of 1×10^4) or 24-well plates (BV2 at density of 4×10^4 and primary microglia 8×10^4) with the indicated concentrations of the inhibitor or H2O (vehicle) for 24 h. MTT solution (Sigma Aldrich) was added to each well to a final concentration of 0.5 mg/mL. After 1 h of incubation at 37°C, water-insoluble dark blue formazan crystals were dissolved in DMSO. Optical densities (OD) were measured at 570 and 620 nm using a scanning multiwell spectrophotometer. The MTT assay was performed according to the manufacturer’s protocol. All measurements were carried out on three independent cell passages, in triplicates.
structure (smiles),measurement,setting,value
CN(C)C[C@@H]1CC[C@@H](CCB(O)O)C[C@]1(N)C(=O)O [OAT-1746],animals that developed tumors at day 14,"[1]; bioluminescence, day 14",5 out of 8
same,tumor growth (tumor volume on brain sections),"[1]; day 21, OAT-1746 50 mg/kg oral twice a day, anti-PD-1 2.5 mg/kg i.p. days 8, 10, 12, 14",did not reduce the tumor growth
same,glioma growth (bioluminescence imaging),"[1]; days 14, 21, 28 post-implantation",did not show any effect on the tumor volume
same,microglia-induced invasion of U87-MG cells,"[2]; 11 µM, co-culture with BV2, 18 h",effectively reduced glioma invasion; also recorded: reduced microglia-induced invasion of glioma cells more efficiently
same,concentration dependence of the inhibitory effect on glioma invasion,"[2]; 0.1 and 11 µM, U87-MG with BV2",concentration-dependent
same,viability of primary murine microglia (toxicity),[3],not toxic
